{"source": "patent US20260215422A1", "about": "“HERBICIDAL COMPOSITIONS” (SYNGENTA CROP PROTECTION AG, priority 2022, published 2026)", "key": {"RW478-16": {"system": "RW478-16", "test": "Additional testing of Group 12 herbicides with other HPPD inhibitor herbicides (Table 7), Colby", "format": "in vivo, Amaranthus sp. (AMAPA)", "conditions": "for Observed Product 1-(Group 12): Group 12 herbicide alone 15.8 g/ha", "from_the_text": "(§1) When active ingredients are combined, the activity to be expected (E) for any given active ingredient combination obeys the so-called Colby Formula and can be calculated as follows (Colby, S. R., Calculating synergistic and antagonistic responses of herbicide combination, Weeds, Vol. 15, pages 20-22; 1967): • ppm=milligrams of active ingredient (a.i.) per liter • X=% action by first active ingredient using p ppm of the active ingredient • Y=% action by second active ingredient using q ppm of the active ingredient.\n(§2) According to Colby, the expected action of active ingredients A+B using p+q ppm of active ingredient is represented by the following formula:\n(§3) [formula] • If the action actually observed (O) is greater than the expected action E then the action of the combination is super-additive, i.e. there is a synergistic effect. In mathematical terms, synergism corresponds to a positive value for the difference of (O-E). In the case of purely complementary addition of activities (expected activity), said difference (O-E) is zero. A negative value of said difference (O-E) signals a loss of activity compared to the expected activity.\n(§4) Additional testing within the scope of disclosure was performed using other HPPD inhibitor herbicides and Group 12 herbicides."}, "S129": {"system": "S129", "test": "Additional testing of Group 12 herbicides with other HPPD inhibitor herbicides (Table 7), Colby", "format": "in vivo, Amaranthus sp. (AMAPA)", "conditions": "for Observed Product 1-(Group 12): Group 12 herbicide alone 15.8 g/ha", "from_the_text": "as §1, §2, §3, §4"}, "Group 27 resistant AMAPA": {"system": "Group 27 resistant AMAPA", "test": "Greenhouse preemergence trial, % control at 29 days after application", "format": "in vivo, Palmer amaranth"}, "[1]": {"system": "HPPD-resistant (RW478-16) Amaranthus sp. (AMAPA)", "test": "Pre-emergent synergy test of PIC with MST + BIR (Tables 4-6), Colby", "format": "in vivo", "conditions": "22 days after treatment", "from_the_text": "as §1, §2, §3\n(§5) Synergy was further tested for in sensitive (S-129) and HPPD-resistant (RW478-16) Amaranthus sp. (AMAPA) in pre-emergent tests according to the treatments in Table 1 below.\n(§6) Similar tests were performed with picolinafen (PIC) and mesotrione+bicyclopyrone (MST+BIR), as summarized by Table 4."}, "[2]": {"system": "sensitive (S-129) Amaranthus sp. (AMAPA)", "test": "Pre-emergent synergy test of PIC with MST + BIR (Tables 4-6), Colby", "format": "in vivo", "conditions": "22 days after treatment", "from_the_text": "as §1, §2, §3, §5, §6"}, "HPPD resistant AMATA": {"system": "HPPD resistant AMATA", "test": "Field trial of dent corn, control 34 days after application", "format": "in vivo, common waterhemp, Amaranthus rudis Sauer", "conditions": "70 g ai/ha diflufenican", "method": "Diflufenican, was already very active on HPPD-R AMAPA providing 98% control alone at 35 g ai/ha, the rate used in mixture with MST+BIR making it difficult to determine if there was synergy between the herbicides. Nevertheless, additional data regarding diflufenican and MST+BIR was obtained during field trials of dent corn.\nDuring the field trial, HPPD resistant AMATA (common waterhemp, Amaranthus rudis Sauer) was tested as follows: • 1) 70 g ai/ha diflufenican—providing 55% control • 2) 202 g ai/ha MST+50 g ai/ha BIR—providing 30% control • 3) 70 g ai/ha diflufenican+202 g ai/ha MST+50 g ai/ha BIR—providing 92% control.\nThe results were collected 34 days after application. The inclusion of a Group 12 herbicide with at least one HPPD-inhibitor, specifically MST+BIR, provided surprising control of HPPD-resistant weeds."}, "[3]": {"system": "HPPD-resistant (RW478-16) Amaranthus sp. (AMAPA)", "test": "Pre-emergent synergy test of DFF with MST + BIR (Tables 1-3), Colby", "format": "in vivo", "conditions": "pre-emergence, 528 h, 22 days after treatment, read-out: Activity (% control) (RW478-16)", "from_the_text": "as §1, §2, §3, §5\n(§7) Dose responses rates were calculated for the treatments at 22 days after treatment which are provided in FIGS. 3 and 4, and further summarized in Table 2."}, "[4]": {"system": "sensitive (S-129) Amaranthus sp. (AMAPA)", "test": "Pre-emergent synergy test of DFF with MST + BIR (Tables 1-3), Colby", "format": "in vivo", "conditions": "pre-emergence, 528 h, 22 days after treatment, read-out: Activity (% control) (S-129)", "from_the_text": "as §1, §2, §3, §5, §7"}, "[5]": {"conditions": "(BIR 6.3) g/ha without Group 12"}, "[6]": {"conditions": "(MST 25.3) g/ha without Group 12"}, "[7]": {"conditions": "(IFT 12.3) g/ha without Group 12"}}, "data": [{"compound": "bicyclopyrone [BIR]", "values": [{"measurement": "Observed Product 2-(HPPDs)", "setting": "RW478-16; [5]", "result": 20, "unit": "%"}, {"measurement": "Observed Product 2-(HPPDs)", "setting": "S129; [5]", "result": 57, "unit": "%"}]}, {"compound": "CCC(Oc1ccc(F)c(C(F)(F)F)c1)C(=O)NCc1ccccc1", "note": "(centres unmarked) [BFB, beflubutamid]", "values": [{"measurement": "Observed Product 1-(Group 12)", "setting": "RW478-16", "result": 37, "unit": "%"}, {"measurement": "Observed Product 1-(Group 12)", "setting": "S129", "result": 67, "unit": "%"}]}, {"compound": "O=C(Nc1ccc(F)cc1)c1cccc(Oc2cccc(C(F)(F)F)c2)n1", "note": "[PIC, picolinafen]", "values": [{"measurement": "control of HPPD-Resistant AMAPA", "setting": "Group 27 resistant AMAPA; Picolinafen 35 g ai/ha alone", "result": "did not adequately control"}, {"measurement": "Activity (% control) (RW478-16)", "setting": "[1]; PIC 1.58 g ai/ha alone", "result": 0, "unit": "%"}, {"measurement": "Activity (% control) (RW478-16)", "setting": "[1]; PIC 2.11 g ai/ha alone", "result": 7, "unit": "%"}, {"measurement": "Activity (% control) (RW478-16)", "setting": "[1]; PIC 3.16 g ai/ha alone", "result": 10, "unit": "%"}, {"measurement": "Activity (% control) (RW478-16)", "setting": "[1]; PIC 7.9 g ai/ha alone", "result": 10, "unit": "%"}, {"measurement": "Activity (% control) (RW478-16)", "setting": "[1]; PIC 15.8 g ai/ha alone", "result": 40, "unit": "%"}, {"measurement": "Activity (% control) (RW478-16)", "setting": "[1]; PIC 31.6 g ai/ha alone", "result": 53, "unit": "%"}, {"measurement": "Activity (% control) (S-129)", "setting": "[2]; PIC 1.58 g ai/ha alone", "result": 10, "unit": "%"}, {"measurement": "Activity (% control) (S-129)", "setting": "[2]; PIC 2.11 g ai/ha alone", "result": 22, "unit": "%"}, {"measurement": "Activity (% control) (S-129)", "setting": "[2]; PIC 3.16 g ai/ha alone", "result": 17, "unit": "%"}, {"measurement": "Activity (% control) (S-129)", "setting": "[2]; PIC 7.9 g ai/ha alone", "result": 30, "unit": "%"}, {"measurement": "Activity (% control) (S-129)", "setting": "[2]; PIC 15.8 g ai/ha alone", "result": 53, "unit": "%"}, {"measurement": "Activity (% control) (S-129)", "setting": "[2]; PIC 31.6 g ai/ha alone", "result": 72, "unit": "%"}, {"measurement": "Observed Product 1-(Group 12)", "setting": "RW478-16", "result": 28, "unit": "%"}, {"measurement": "Observed Product 1-(Group 12)", "setting": "S129", "result": 77, "unit": "%"}]}, {"compound": "O=C(Nc1ccc(F)cc1F)c1cccnc1Oc1cccc(C(F)(F)F)c1", "note": "[DFF, diflufenican]", "values": [{"measurement": "% control of HPPD-R AMAPA", "setting": "Group 27 resistant AMAPA; alone at 35 g ai/ha", "result": 98, "unit": "%"}, {"measurement": "% control of HPPD resistant AMATA", "setting": "HPPD resistant AMATA", "result": 55, "unit": "%"}, {"measurement": "inhibition at 1.58 g/ha", "setting": "[3]; DFF 1.58 g ai/ha alone", "result": 77, "unit": "%"}, {"measurement": "inhibition at 2.11 g/ha", "setting": "[3]; DFF 2.11 g ai/ha alone", "result": 53, "unit": "%"}, {"measurement": "inhibition at 3.16 g/ha", "setting": "[3]; DFF 3.16 g ai/ha alone", "result": 45, "unit": "%"}, {"measurement": "inhibition at 7.9 g/ha", "setting": "[3]; DFF 7.9 g ai/ha alone", "result": 22, "unit": "%"}, {"measurement": "inhibition at 15.8 g/ha", "setting": "[3]; DFF 15.8 g ai/ha alone", "result": 18, "unit": "%"}, {"measurement": "inhibition at 31.6 g/ha", "setting": "[3]; DFF 31.6 g ai/ha alone", "result": 3, "unit": "%"}, {"measurement": "inhibition at 1.58 g/ha", "setting": "[4]; DFF 1.58 g ai/ha alone", "result": 100, "unit": "%"}, {"measurement": "inhibition at 2.11 g/ha", "setting": "[4]; DFF 2.11 g ai/ha alone", "result": 94, "unit": "%"}, {"measurement": "inhibition at 3.16 g/ha", "setting": "[4]; DFF 3.16 g ai/ha alone", "result": 72, "unit": "%"}, {"measurement": "inhibition at 7.9 g/ha", "setting": "[4]; DFF 7.9 g ai/ha alone", "result": 23, "unit": "%"}, {"measurement": "inhibition at 15.8 g/ha", "setting": "[4]; DFF 15.8 g ai/ha alone", "result": 10, "unit": "%"}, {"measurement": "inhibition at 31.6 g/ha", "setting": "[4]; DFF 31.6 g ai/ha alone", "result": 13, "unit": "%"}, {"measurement": "Observed Product 1-(Group 12)", "setting": "RW478-16", "result": 70, "unit": "%"}, {"measurement": "Observed Product 1-(Group 12)", "setting": "S129", "result": 99, "unit": "%"}]}, {"compound": "CS(=O)(=O)c1ccc(C(=O)C2C(=O)CCCC2=O)c([N+](=O)[O-])c1", "note": "[MST, mesotrione]", "values": [{"measurement": "Observed Product 2-(HPPDs)", "setting": "RW478-16; [6]", "result": 28, "unit": "%"}, {"measurement": "Observed Product 2-(HPPDs)", "setting": "S129; [6]", "result": 100, "unit": "%"}]}, {"compound": "CS(=O)(=O)c1cc(C(F)(F)F)ccc1C(=O)c1cnoc1C1CC1", "note": "[IFT, isoxaflutole]", "values": [{"measurement": "Observed Product 2-(HPPDs)", "setting": "RW478-16; [7]", "result": 37, "unit": "%"}, {"measurement": "Observed Product 2-(HPPDs)", "setting": "S129; [7]", "result": 98, "unit": "%"}]}, {"compound": "O=C1C(Cl)C(CCl)CN1c1cccc(C(F)(F)F)c1", "note": "(centres unmarked) [FLU, flurochloridone]", "values": [{"measurement": "Observed Product 1-(Group 12)", "setting": "RW478-16", "result": 27, "unit": "%"}, {"measurement": "Observed Product 1-(Group 12)", "setting": "S129", "result": 57, "unit": "%"}]}]}
